Test system: AMPA receptor
Experiment: Cortical slice studies: responses to AMPA in rat cortical slice
Type: cell-based
Settings: from righthand shift in AMPA concentration-response curves, read-out: apparent equilibrium constant (Kb) in response to AMPA
Description: The compounds useful in this invention potently and selectively block responses to NMDA and/or AMPA in a brain slice from rat cortex, and inhibit the binding of agonists and antagonists to the strychnine-insensitive site present on the NMDA receptor and/or AMPA binding to rat forebrain membranes.
The effects of compounds of the invention on responses to NMDA and AMPA were assessed using the rat cortical slice as described by Wong et al., Proc. Natl. Acad. Sci. USA, 1986, 83, 7104. The apparent equilibrium constant (Kb) was calculated from the righthand shift in the NMDA or AMPA concentration-response curves produced by the compound under test.

SMILES: O=c1[nH]c2cc([N+](=O)[O-])ccc2c(O)c1-c1ccccc1 [Example 12, 4-Hydroxy-7-nitro-3-phenyl-2(1H)-quinolone]
- Kb: < 150 µM

Reference: patent publication US5348962A, “Hydroxyquinolone derivatives compounds which have pharmaceutical utility” (Merck Sharpe & Dohme Ltd., priority 1990, dated 1994)
